A short description of data set [1]: physchem. The following applies: 1-octanol/PBS, pH 7.4.
Data set [2] in a line: in vitro. The following applies: dog, MDCK-MDR1.
The nature of data set [3]: in vivo. The following applies: brain/plasma.
Data set [4] is described as follows: physchem. The following applies: PBS, pH 7.4.
Data set [5] can be described thus: in vivo. The following applies: FVB hSCN9a Tg, mouse, plasma, po, 30 mg/kg.
The nature of data set [6]: in vivo. The following applies: Sprague-Dawley, rat, iv, 1 mg/kg.
Data set [7] in a line: in vivo. The settings on record: CF1, mouse, iv, 0.5 mg/kg.
Data set [8] in a line: in vitro. The following applies: dog, MDCK-MDR1. This is another data set of the same source.
Data set [9] can be described thus: in vivo. The following applies: FVB hSCN9a Tg, mouse, po, 30 mg/kg.
Data set [10] is described as follows: in vivo. The following applies: beagle, dog, iv, 0.5 mg/kg.
Data set [11] is described as follows: Dissociation constant, pKa of the compound by UV-metric method. Format: physicochemical.
The conditions of data set [12]: octanol/water, pH 7.4.

From ChEMBL document CHEMBL4251746, “Design of Conformationally Constrained Acyl Sulfonamide Isosteres: Identification of N-([1,2,4]Triazolo[4,3- a]pyridin-3-yl)methane-sulfonamides as Potent and Selective hNaV1.7 Inhibitors for the Treatment of Pain” (J Med Chem, 2018) come the findings set out here.

SMILES strings stand for the structures. In brackets after ≈: the same amount, converted by molar mass.

With `CS(=O)(=O)Nc1nnc2cc(OCC34CC5CC(CC(C5)C3)C4)c(C3CCC3)cn12`, the logD (in general, the decadic logarithm of the distribution of all forms, ionised or not, between an organic phase and buffer at a given pH) in “physchem [1]” was 3.9. The same measure, in the same setting: to `CS(=O)(=O)Nc1nnc2cc(OCC34CC5CC(CC(C5)C3)C4)ccn12` belongs 2.2; to `O=S(=O)(Nc1nnc2cc(OCC34CC5CC(CC(C5)C3)C4)c(C3CC3)cn12)C(F)F`, 3.1; to `CS(=O)(=O)Nc1noc2cc(COc3ccc(Cl)c(Cl)c3)c(Cl)cc12`, 2.5.

As to `CCc1cn2c(NS(C)(=O)=O)nnc2cc1OCC12CC3CC(CC(C3)C1)C2`, the logD in the data set “physchem [1]” came out at 3.1. Regarding `CS(=O)(=O)Nc1nnc2cc(COc3cc(Cl)cc(Cl)c3)c(C3CC3)cn12`, the Papp B→A (as a rule, the apparent permeability from the basolateral to the apical side of a cell layer) at 10 µM in “in vitro [2]” was found to be 15 ×10⁻⁶ cm/s. Besides, in “in vivo [3]”, the Kp (commonly the ratio of the level in a tissue or fluid to that in plasma or blood) is less than 0.004. In addition, the kinetic solubility – broadly, the concentration staying in solution when a stock, usually in DMSO, is diluted into the medium – at 24 h, 200 µM in “physchem [4]” was found to be 17 µM (≈ 7.26 µg/mL). This compound also returned a concentration at 3 h in the data set “in vivo [5]” of 18.8 µM. Besides, the figures for the Vd in the data set “in vivo [6]” and in the data set “in vivo [7]” were 0.6 L/kg and 0.2 L/kg, respectively. The compound also showed a logD in “physchem [1]” of 1.9. Further, the Papp A→B – broadly, how fast a substance crosses the layer from the apical side – at 10 µM in the data set “in vitro [8]” worked out at 4 ×10⁻⁶ cm/s. Take `CS(=O)(=O)Nc1nnc2cc(OCC34CC5CC(CC(C5)C3)C4)c(Br)cn12`: in the data set “physchem [1]”, the logD was determined as 2.8. On the same count and under the same terms, the result for `CS(=O)(=O)Nc1nnc2cc(OCC3C4CC5CC(C4)CC3C5)c(C3CC3)cn12` (configuration not stated) reads 2.3. Take `CS(=O)(=O)Nc1nnc2cc(OCC34CC5CC(CC(C5)C3)C4)c(C3CC3)cn12`: in the data set “in vitro [2]”, the Papp B→A at 10 µM was 3.2 ×10⁻⁶ cm/s. Besides, the Tmax – broadly, the time from dosing to the highest level – at 3 h in the data set “in vivo [9]” stood at 2 h. The Kp in “in vivo [3]” was more than 0.17. The compound also gave a solubility (kinetic) at 24 h, 200 µM in “physchem [4]” of 32 µM (≈ 13.3 µg/mL). This compound showed a concentration at 3 h in “in vivo [5]” of 46.2 µM. Further, the results for the Vd in the data set “in vivo [6]” and in “in vivo [10]” were 0.6 L/kg and 0.4 L/kg, respectively. In the data set “physchem [1]”, this compound came in with a logD of 3.5. Further, the Papp A→B at 10 µM in “in vitro [8]” was found to be 3.2 ×10⁻⁶ cm/s. As for `CS(=O)(=O)Nc1nnc2cc(OCC34CC5CC(CC(C5)C3)C4)c(Cl)cn12`, the pKa (as a rule, the negative logarithm of the acid dissociation constant) in data set [11] turned out to be 5.6. Further, the logD in the data set “physchem [1]” is 2.7. The compound `CNS(=O)(=O)Nc1nnc2cc(OCCC34CC5CC(CC(C5)C3)C4)c(C3CC3)cn12` returned a logD in “physchem [1]” of 3.7. The same measure, in the same setting: the result for `CS(=O)(=O)Nc1noc2cc(OCc3ccc(Cl)c(Cl)c3)c(Cl)cc12` reads 1.8; that for `CS(=O)(=O)Nc1noc2cc(COc3ccc(Cl)c(Cl)c3)c(C3CC3)cc12`, 2.4.

Consider `CS(=O)(=O)Nc1noc2cc(OCC34CC5CC(CC(C5)C3)C4)c(Cl)cc12`, for which the pKa in data set [11] amounted to 4.7. The compound further showed a logD in the data set “physchem [1]” of 3.5.

`CS(=O)(=O)Nc1nnc2cc(COc3ccc(Cl)c(Cl)c3)c(C3CC3)cn12` displayed a logD in the data set “physchem [1]” of 1.5. On the same count and under the same terms, to `O=S(=O)(Nc1nnc2cc(OCC34CC5CC(CC(C5)C3)C4)c(C3CC3)cn12)C1CCC1` belongs 4.7; to `CNS(=O)(=O)Nc1nnc2cc(OCC34CC5CC(CC(C5)C3)C4)c(C3CC3)cn12`, 3.2; to `CC(C)c1cn2c(NS(C)(=O)=O)nnc2cc1OCC12CC3CC(CC(C3)C1)C2`, 2.9. The compound `CS(=O)(=O)NC(=O)c1cc(Cl)c(OCC23CC4CC(CC(C4)C2)C3)cc1F` showed a pKa in data set [11] of 3.8. In data set [12], this compound showed a logD of 2.4.
